Here are results for 2 compounds from patent publication US10632064B2, “Topical regional neuro affective therapy with cannabinoid combination products” (Afgin Pharma, LLC, priority 2015, dated 2020).

Test [1] deals with acute paranoid schizophrenia. Conditions: after 2 weeks; cited from earlier work.
Test [2] has as its system human patient having a remote head injury, s/p 4 craniotomies and intractable seizures. As to the kind of experiment: Example 7: topical cannabidiol 40 mg at the BONATH, intractable seizures, EEG. The class given is in vivo. Conditions: 25 mg milnacipran topical nuchal after cannabidiol 40 mg. The procedure:
The efficacy of a topical cannabidiol formulation was studied in a human patient having a remote head injury, s/p 4 craniotomies and intractable seizures. The patient was treated with cannabidiol 40 mg applied to the BONATH in a topical formulation. There was attenuation of associated focal EEG abnormalities.

Regarding `CCN1CCCC1CNC(=O)c1cc(S(=O)(=O)CC)c(N)cc1OC` (centres unmarked) [amisulpride], the psychotic symptoms result in test [1] is given as “significant decrease in psychotic symptoms”.

Consider `CCN(CC)C(=O)C1(c2ccccc2)CC1CN` (centres unmarked) [milnacipran], for which the “EEG after further topical nuchal treatment” value in test [2] is given as “further attenuated”.
